# Results taken from paper PMC5218480 (PLoS ONE, 2017).
# System: MV-4-11 cells
# Test: Gene expression microarray analysis (Affymetrix PrimeView) and GSEA
# Format: cell-based, human
# Set-up: RFU PODN (11730768_x_at) / Fold change /veh PODN (11730768_x_at) / RFU LINC00158 (11744669_a_at) / Fold change /veh LINC00158 (11744669_a_at) / RFU DUSP10 (11751237_a_at) / Fold change /veh DUSP10 (11751237_a_at) / RFU ID3 (11757404_x_at) / Fold change /veh ID3 (11757404_x_at) / RFU PLEKHG5 (11737974_s_at) / Fold change /veh PLEKHG5 (11737974_s_at) / RFU LRRC4B (11730491_at) / Fold change /veh LRRC4B (11730491_at) / RFU GIMAP4 (11747438_a_at) / Fold change /veh GIMAP4 (11747438_a_at) / RFU KRT8 (11758183_x_at) / Fold change /veh KRT8 (11758183_x_at) / RFU CNN1 (11734310_a_at) / Fold change /veh CNN1 (11734310_a_at) / RFU VPS37D (11726825_at) / Fold change /veh VPS37D (11726825_at) / RFU C10orf10 (11716522_x_at) / Fold change /veh C10orf10 (11716522_x_at) / RFU KIR2DL2 /// KIR2DL4 /// KIR2DL5A /// KIR2DL5B /// KIR2DS1 /// KIR2DS2 /// KIR2DS3 /// KIR2DS4 /// KIR3DL3 /// KIR3DL3 /// KIR3DS1 (11738374_at) / Fold change /veh KIR2DL2 /// KIR2DL4 /// KIR2DL5A /// KIR2DL5B /// KIR2DS1 /// KIR2DS2 /// KIR2DS3 /// KIR2DS4 /// KIR3DL3 /// KIR3DL3 /// KIR3DS1 (11738374_at) / RFU C1QL1 (11718748_at) / Fold change /veh C1QL1 (11718748_at) / RFU TMPRSS4 (11747572_a_at) / Fold change /veh TMPRSS4 (11747572_a_at) / RFU HAMP (11756126_x_at) / Fold change /veh HAMP (11756126_x_at) / RFU RNFT2 (11725882_a_at) / Fold change /veh RNFT2 (11725882_a_at) / RFU NR4A2 (11747474_a_at) / Fold change /veh NR4A2 (11747474_a_at) / RFU ABCC12 (11746883_a_at) / Fold change /veh ABCC12 (11746883_a_at) / RFU TMEM136 (11760407_x_at) / Fold change /veh TMEM136 (11760407_x_at) / RFU CLDN22 /// WWC2 (11732394_at) / Fold change /veh CLDN22 /// WWC2 (11732394_at) / RFU HLA-DPB1 (11760878_x_at) / Fold change /veh HLA-DPB1 (11760878_x_at) / RFU SPINT1 (11716480_a_at) / Fold change /veh SPINT1 (11716480_a_at) / RFU GAP43 (11754022_s_at) / Fold change /veh GAP43 (11754022_s_at) / RFU A4GNT (11735810_at) / Fold change /veh A4GNT (11735810_at) / RFU PRB3 (11715151_x_at) / Fold change /veh PRB3 (11715151_x_at) / RFU TUBB4B (11761932_at) / Fold change /veh TUBB4B (11761932_at) / RFU CAPN14 (11732068_a_at) / Fold change /veh CAPN14 (11732068_a_at) / RFU TMCC2 (11721928_a_at) / Fold change /veh TMCC2 (11721928_a_at) / RFU IRGQ (11745062_a_at) / Fold change /veh IRGQ (11745062_a_at) / RFU FAM174B (11720279_a_at) / Fold change /veh FAM174B (11720279_a_at) / RFU TMPRSS4 (11748680_a_at) / Fold change /veh TMPRSS4 (11748680_a_at) / RFU FAM212B (11763350_a_at) / Fold change /veh FAM212B (11763350_a_at) / RFU PLEKHG5 (11743358_a_at) / Fold change /veh PLEKHG5 (11743358_a_at) / RFU ZSCAN30 (11745921_a_at) / Fold change /veh ZSCAN30 (11745921_a_at) / RFU CMKLR1 (11741424_a_at) / Fold change /veh CMKLR1 (11741424_a_at) / RFU LOC101060620 /// MAPK8IP1 (11723275_at) / Fold change /veh LOC101060620 /// MAPK8IP1 (11723275_at) / RFU SPTSSB (11747773_x_at) / Fold change /veh SPTSSB (11747773_x_at) / RFU PRSS12 (11739890_at) / Fold change /veh PRSS12 (11739890_at) / RFU BIN1 (11741810_x_at) / Fold change /veh BIN1 (11741810_x_at) / RFU WNT11 (11732464_a_at) / Fold change /veh WNT11 (11732464_a_at) / RFU C10orf10 (11716521_a_at) / Fold change /veh C10orf10 (11716521_a_at) / RFU C5orf56 (11738089_at) / Fold change /veh C5orf56 (11738089_at) / RFU CYB561 (11721691_x_at) / Fold change /veh CYB561 (11721691_x_at) / RFU ANKRD19P (11752326_a_at) / Fold change /veh ANKRD19P (11752326_a_at) / RFU OR2T12 /// OR2T33 /// OR2T8 (11738714_s_at) / Fold change /veh OR2T12 /// OR2T33 /// OR2T8 (11738714_s_at) / RFU VCAN (11748164_a_at) / Fold change /veh VCAN (11748164_a_at) / RFU JSRP1 (11732532_at) / Fold change /veh JSRP1 (11732532_at) / RFU KRTAP10-11 (11738290_x_at) / Fold change /veh KRTAP10-11 (11738290_x_at) / RFU MYO3A (11730013_a_at) / Fold change /veh MYO3A (11730013_a_at) / RFU EBF3 (11725865_a_at) / Fold change /veh EBF3 (11725865_a_at) / RFU CAMK2N1 (11719241_x_at) / Fold change /veh CAMK2N1 (11719241_x_at) / RFU C5orf56 (11738088_a_at) / Fold change /veh C5orf56 (11738088_a_at) / RFU OLFML3 (11715873_a_at) / Fold change /veh OLFML3 (11715873_a_at) / RFU LOC100653217 /// NTM (11731650_a_at) / Fold change /veh LOC100653217 /// NTM (11731650_a_at) / RFU MAPK11 (11762145_a_at) / Fold change /veh MAPK11 (11762145_a_at) / RFU FIZ1 (11724087_x_at) / Fold change /veh FIZ1 (11724087_x_at) / RFU OASL (11726364_x_at) / Fold change /veh OASL (11726364_x_at) / RFU SOX15 (11748057_x_at) / Fold change /veh SOX15 (11748057_x_at) / RFU CD79A (11719716_a_at) / Fold change /veh CD79A (11719716_a_at) / RFU HIST1H1D (11736915_at) / Fold change /veh HIST1H1D (11736915_at) / RFU CASKIN2 (11723855_a_at) / Fold change /veh CASKIN2 (11723855_a_at) / RFU LOC730098 (11760151_x_at) / Fold change /veh LOC730098 (11760151_x_at) / RFU OR4N2 (11742367_at) / Fold change /veh OR4N2 (11742367_at) / RFU PRRT2 (11749266_a_at) / Fold change /veh PRRT2 (11749266_a_at) / RFU SNX32 (11753110_a_at) / Fold change /veh SNX32 (11753110_a_at) / RFU CDHR5 (11726645_a_at) / Fold change /veh CDHR5 (11726645_a_at) / RFU RCAN1 (11760418_a_at) / Fold change /veh RCAN1 (11760418_a_at) / RFU FAM167A (11723789_a_at) / Fold change /veh FAM167A (11723789_a_at) / RFU FAM26E (11764081_at) / Fold change /veh FAM26E (11764081_at) / RFU ISYNA1 (11749810_s_at) / Fold change /veh ISYNA1 (11749810_s_at) / RFU ACY1 (11761880_at) / Fold change /veh ACY1 (11761880_at) / RFU 11764098_at / Fold change /veh 11764098_at / RFU SAMD14 (11745864_x_at) / Fold change /veh SAMD14 (11745864_x_at) / RFU NPB (11741838_a_at) / Fold change /veh NPB (11741838_a_at) / RFU TMPRSS6 (11731388_a_at) / Fold change /veh TMPRSS6 (11731388_a_at) / RFU KRTAP10-2 (11738614_at) / Fold change /veh KRTAP10-2 (11738614_at) / RFU ARHGAP8 /// PRR5-ARHGAP8 (11727945_x_at) / Fold change /veh ARHGAP8 /// PRR5-ARHGAP8 (11727945_x_at) / RFU KRTAP5-7 /// NADSYN1 (11734609_at) / Fold change /veh KRTAP5-7 /// NADSYN1 (11734609_at) / RFU RASL12 (11751679_a_at) / Fold change /veh RASL12 (11751679_a_at) / RFU CDKN2B (11736163_a_at) / Fold change /veh CDKN2B (11736163_a_at) / RFU PRF1 (11729649_at) / Fold change /veh PRF1 (11729649_at) / RFU, ZNF638 /// ZNF638-IT1 / Fold change vs veh, ZNF638 /// ZNF638-IT1 / RFU, PANK3 / Fold change vs veh, PANK3 / RFU, SH3YL1 / Fold change vs veh, SH3YL1 / RFU, ZEB2 / Fold change vs veh, ZEB2 / RFU, NRIP1 / Fold change vs veh, NRIP1 / RFU, PTTG1IP / Fold change vs veh, PTTG1IP / RFU, CAPN2 / Fold change vs veh, CAPN2 / RFU, MED14 / Fold change vs veh, MED14 / RFU, SNORA58 / Fold change vs veh, SNORA58 / RFU, C1orf63 / Fold change vs veh, C1orf63 / RFU, LRRFIP1 / Fold change vs veh, LRRFIP1 / RFU, NDUFAF7 / Fold change vs veh, NDUFAF7 / RFU, SLC12A2 / Fold change vs veh, SLC12A2 / RFU, IBTK / Fold change vs veh, IBTK / RFU, ESF1 / Fold change vs veh, ESF1 / Fold change vs veh, TMEM50B / RFU, TAOK1 / Fold change vs veh, TAOK1 / RFU, ACBD3 / Fold change vs veh, ACBD3 / RFU, TMA16 / Fold change vs veh, TMA16 / RFU, RWDD3 / Fold change vs veh, RWDD3 / RFU, BCAT1 / Fold change vs veh, BCAT1 / RFU, EDEM3 / Fold change vs veh, EDEM3 / RFU, TMEM33 / Fold change vs veh, TMEM33 / RFU, WDR75 / Fold change vs veh, WDR75 / RFU, AHCTF1 / Fold change vs veh, AHCTF1 / RFU, TFRC / Fold change vs veh, TFRC / RFU, ZDHHC17 / Fold change vs veh, ZDHHC17 / RFU, NOM1 / Fold change vs veh, NOM1 / RFU, ARL8B / Fold change vs veh, ARL8B / RFU, ZBTB11 / Fold change vs veh, ZBTB11 / RFU, TAMM41 / Fold change vs veh, TAMM41 / RFU, KIAA1704 /// LOC100996395 / Fold change vs veh, KIAA1704 /// LOC100996395 / RFU, ING1 / Fold change vs veh, ING1 / RFU, TRMT61B / Fold change vs veh, TRMT61B / RFU, FUBP3 / Fold change vs veh, FUBP3 / RFU, TP53 / Fold change vs veh, TP53 / RFU, TNKS2 / Fold change vs veh, TNKS2 / RFU, ZFP14 / Fold change vs veh, ZFP14 / RFU, ACTR2 / Fold change vs veh, ACTR2 / RFU, PPP3R1 / Fold change vs veh, PPP3R1 / RFU, PIK3R1 / Fold change vs veh, PIK3R1 / RFU, HNRNPA1 / Fold change vs veh, HNRNPA1 / RFU, RNF170 / Fold change vs veh, RNF170 / RFU, ZNF28 / Fold change vs veh, ZNF28 / RFU, RNGTT / Fold change vs veh, RNGTT / RFU, OGT / Fold change vs veh, OGT / RFU, BRD1 / Fold change vs veh, BRD1 / RFU, MARS / Fold change vs veh, MARS / RFU, ZNF655 / Fold change vs veh, ZNF655 / RFU, FAHD1 / Fold change vs veh, FAHD1 / RFU, BDP1 / Fold change vs veh, BDP1 / RFU, LRRCC1 / Fold change vs veh, LRRCC1 / RFU, ARID1A / Fold change vs veh, ARID1A / RFU, ZNF146 / Fold change vs veh, ZNF146 / RFU, ZNF330 / Fold change vs veh, ZNF330 / RFU, GPN3 / Fold change vs veh, GPN3 / RFU, C9orf123 / Fold change vs veh, C9orf123 / RFU, N4BP2L2 / Fold change vs veh, N4BP2L2 / RFU, ARFIP1 / Fold change vs veh, ARFIP1 / RFU, FAM179B / Fold change vs veh, FAM179B / RFU, BCL10 / Fold change vs veh, BCL10 / RFU, UHRF1BP1L / Fold change vs veh, UHRF1BP1L / RFU, BET1 / Fold change vs veh, BET1 / RFU, CNOT2 / Fold change vs veh, CNOT2 / RFU, ZNF268 / Fold change vs veh, ZNF268 / Fold change vs veh, ZNF507 / RFU, DGCR2 / Fold change vs veh, DGCR2 / RFU, WDSUB1 / Fold change vs veh, WDSUB1 / Fold change vs veh, HSP90B1 /// MIR3652 / RFU, ADSS / Fold change vs veh, ADSS / RFU, GK / Fold change vs veh, GK / RFU, ZNF148 / Fold change vs veh, ZNF148 / RFU, TAF9 / Fold change vs veh, TAF9 / RFU, SLC1A5 / Fold change vs veh, SLC1A5 / RFU, SLMO2 / Fold change vs veh, SLMO2 / RFU, ABCC4 / Fold change vs veh, ABCC4 / RFU, LOC101060439 /// RAP1B / Fold change vs veh, LOC101060439 /// RAP1B / RFU, RFX7 / Fold change vs veh, RFX7 / RFU, GTPBP10 / Fold change vs veh, GTPBP10 / RFU, CNEP1R1 / Fold change vs veh, CNEP1R1 / RFU, BIVM-ERCC5 /// ERCC5 / Fold change vs veh, BIVM-ERCC5 /// ERCC5 / RFU, ILF3 / Fold change vs veh, ILF3 / RFU 11762660_at / Fold change /veh 11762660_at / RFU VCAN (11757783_s_at) / Fold change /veh VCAN (11757783_s_at) / RFU DDX43 (11728927_at) / Fold change /veh DDX43 (11728927_at) / RFU KRT8 (11758188_x_at) / Fold change /veh KRT8 (11758188_x_at) / RFU NKD1 (11759106_at) / Fold change /veh NKD1 (11759106_at) / RFU SRD5A1 (11742802_a_at) / Fold change /veh SRD5A1 (11742802_a_at) / RFU TPSAB1 /// TPSB2 (11721975_s_at) / Fold change /veh TPSAB1 /// TPSB2 (11721975_s_at) / RFU GSTM3 (11746129_a_at) / Fold change /veh GSTM3 (11746129_a_at) / RFU IL23R (11737362_x_at) / Fold change /veh IL23R (11737362_x_at) / RFU TMEM51 (11727254_a_at) / Fold change /veh TMEM51 (11727254_a_at) / RFU PIWIL2 (11732686_x_at) / Fold change /veh PIWIL2 (11732686_x_at) / RFU ORM1 (11744905_x_at) / Fold change /veh ORM1 (11744905_x_at) / RFU CCDC152 (11743942_at) / Fold change /veh CCDC152 (11743942_at) / RFU ECM1 (11717891_a_at) / Fold change /veh ECM1 (11717891_a_at) / RFU IL23R (11748794_a_at) / Fold change /veh IL23R (11748794_a_at) / RFU TNFAIP8L3 (11732012_x_at) / Fold change /veh TNFAIP8L3 (11732012_x_at) / RFU MBOAT4 (11741988_at) / Fold change /veh MBOAT4 (11741988_at) / RFU 11764193_at / Fold change /veh 11764193_at / RFU TMEM53 (11763286_at) / Fold change /veh TMEM53 (11763286_at) / RFU MAGEB2 (11727129_at) / Fold change /veh MAGEB2 (11727129_at) / RFU TMEM200A (11744735_a_at) / Fold change /veh TMEM200A (11744735_a_at) / RFU CCDC152 (11751479_a_at) / Fold change /veh CCDC152 (11751479_a_at) / RFU FAM211A (11726209_a_at) / Fold change /veh FAM211A (11726209_a_at) / RFU RGS16 (11746705_a_at) / Fold change /veh RGS16 (11746705_a_at) / RFU VCAN (11755009_s_at) / Fold change /veh VCAN (11755009_s_at) / RFU RHOB (11743442_s_at) / Fold change /veh RHOB (11743442_s_at) / RFU RGS16 (11720943_a_at) / Fold change /veh RGS16 (11720943_a_at) / RFU RGS16 (11720944_at) / Fold change /veh RGS16 (11720944_at) / RFU, VPS4B / Fold change vs veh, VPS4B / RFU, CREB1 / Fold change vs veh, CREB1 / RFU, DNAJC13 / Fold change vs veh, DNAJC13 / RFU, GNAQ / Fold change vs veh, GNAQ / RFU, CDK5R1 / Fold change vs veh, CDK5R1 / RFU, ZRANB3 / Fold change vs veh, ZRANB3 / RFU, CUL4A / Fold change vs veh, CUL4A / RFU, CCNY / Fold change vs veh, CCNY / RFU, UFL1 / Fold change vs veh, UFL1 / RFU, COG3 / Fold change vs veh, COG3 / RFU, DIAPH2 / Fold change vs veh, DIAPH2 / RFU, SKA2 / Fold change vs veh, SKA2 / RFU, AFF3 / Fold change vs veh, AFF3 / RFU, LMF1 / Fold change vs veh, LMF1 / RFU, IPO11 / Fold change vs veh, IPO11 / RFU, DFFB / Fold change vs veh, DFFB / RFU, FOXP1 / Fold change vs veh, FOXP1 / RFU, CARD8 / Fold change vs veh, CARD8 / RFU, STRN3 / Fold change vs veh, STRN3 / RFU, ADK / Fold change vs veh, ADK / RFU, RASSF2 / Fold change vs veh, RASSF2 / RFU, WIPF1 / Fold change vs veh, WIPF1 / RFU, LARP1B / Fold change vs veh, LARP1B / RFU, RASA1 / Fold change vs veh, RASA1 / RFU, RB1 / Fold change vs veh, RB1 / RFU, PPFIA1 / Fold change vs veh, PPFIA1 / RFU, MAT2A / Fold change vs veh, MAT2A / RFU, CCT5 / Fold change vs veh, CCT5 / RFU, WDR92 / Fold change vs veh, WDR92 / RFU, CUX1 / Fold change vs veh, CUX1 / RFU, TTC7A / Fold change vs veh, TTC7A / RFU, TMEM135 / Fold change vs veh, TMEM135 / RFU, DEPTOR / Fold change vs veh, DEPTOR / RFU, CPM / Fold change vs veh, CPM / RFU, DNAJB6 / Fold change vs veh, DNAJB6 / RFU, CACNA2D3 / Fold change vs veh, CACNA2D3 / RFU, DTX4 / Fold change vs veh, DTX4 / RFU, TFCP2 / Fold change vs veh, TFCP2 / RFU, GMCL1 /// GMCL1P1 / Fold change vs veh, GMCL1 /// GMCL1P1 / RFU, AEBP2 / Fold change vs veh, AEBP2 / RFU, SNHG1 /// SNORD22 /// SNORD25 /// SNORD26 /// SNORD27 /// SNORD28 /// SNORD29 /// SNORD31 / Fold change vs veh, SNHG1 /// SNORD22 /// SNORD25 /// SNORD26 /// SNORD27 /// SNORD28 /// SNORD29 /// SNORD31 / Fold change (Aza/veh), C12orf56 (ProbeSet 11735607_a_at) / Fold change (ACY-1035/veh), C12orf56 (ProbeSet 11735607_a_at) / Fold change (Aza/veh), FGFR1OP (ProbeSet 11751329_s_at) / Fold change (ACY-1035/veh), FGFR1OP (ProbeSet 11751329_s_at) / Fold change (Aza/veh), VPS36 (ProbeSet 11739960_a_at) / Fold change (ACY-1035/veh), VPS36 (ProbeSet 11739960_a_at) / RFU SYPL1 (11715823_x_at) / Fold change /veh SYPL1 (11715823_x_at) / RFU IGFBP7 (11715501_s_at) / Fold change /veh IGFBP7 (11715501_s_at) / RFU REEP3 (11722064_at) / Fold change /veh REEP3 (11722064_at) / RFU IGLL1 (11728026_x_at) / Fold change /veh IGLL1 (11728026_x_at): dose or concentration left out as unconfirmed
# Details: ProbeSet 11730252_s_at; LIST B
compound,measurement,value
Nc1ncn([C@@H]2O[C@H](CO)[C@@H](O)[C@H]2O)c(=O)n1 [azacitidine],"RFU, AHCTF1",220.95 RFU
